US8389523B2, “Substituted quinoxaline and an agrochemical composition thereof” (Kumiai Chemical Industry Co., Ltd., priority 2007, dated 2013)

Assays:
Format in all cases: in vivo
Parameters in all cases: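 grade 0 to 5 of growth suppression where 5 is 90% or more and 0 below 10%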
Amaranthus viridis L. [1] = assay: Herbicidal effects in upland field foliar treatment (Test Example 3); conditions: 1000 g active ingredient per hectare, 14th day after treatment, criteria of Table 138
Experimental: (§1) Test Example 3 Test on Herbicidal Effects in Upland Field Foliar Treatment A 80-cm^2 plastic pot was filled with upland field soil. Seeds of Echinochloa crus-galli (L.) P. Beauv. var. crus-galli, Abutilon theophrasti medicus and Amaranthus viridis L. were sowed, and the plants were grown for two weeks in a greenhouse. A wettable powder formulation prepared according to Preparation Example 1 was diluted with water, and was sprayed with a small sprayer to perform foliar application over the entirety of plants from the upper side, in an amount equivalent to 1000 liters per hectare, such that 1000 g of the active ingredient per hectare was applied. Thereafter, the plants were grown in a greenhouse, and on the 14th day after the treatment, the herbicidal effects were investigated according to the criteria described in the Table 138 shown above.

[2] = system: Abutilon theophrasti medicus; assay: as above; conditions: 1000 g active ingredient per hectare, 14th day after treatment, criteria of Table 138
Experimental: as §1

[3] = system: Echinochloa crus-galli (L.) P. Beauv. var. crus-galli; assay: as above; conditions: 1000 g active ingredient per hectare, 14th day after treatment, criteria of Table 138
Experimental: as §1

[4] = system: Scirpus juncoides Roxb. var. ohwianus. T. Koyama; assay: Herbicidal effects in paddy field soil treatment (Test Example 1); conditions: paddy field soil treatment; 1000 g of the active ingredient per hectare; wettable powder added dropwise on water surface; 21st day after treatment
How it was run: (§2)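 Application rate was 1000 g active ingredient per hectare, delivered as a diluted wettable powder onto the surface of 3 cm flood water, the day after seeds were sown in paddy soil. Effects were rated 21 days later.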

[5] = system: Echinochloa oryzicola Vasing; assay: as above; conditions: paddy field soil treatment; 1000 g of the active ingredient per hectare; wettable powder added dropwise on water surface; 21st day after treatment
How it was run: as §2

[6] = system: Monochoria vaginalis (Burm. f.) Presl var. plantaginea (Roxb.) Solms-Laub.; assay: as above; conditions: paddy field soil treatment; 1000 g of the active ingredient per hectare; wettable powder added dropwise on water surface; 21st day after treatment
How it was run: as §2

Amaranthus viridis L. [7] = assay: Herbicidal effects in upland field soil treatment (Test Example 2); conditions: 1000 g active ingredient per hectare, 21st day after treatment, criteria of Table 138
How it was run: (§3)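 A wettable powder formulation, diluted with water, is applied to the soil surface after sowing and covering seeds in upland field soil, at a rate of 1000 g active ingredient per hectare. After greenhouse growth, herbicidal activity is graded by criteria at 21 days.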

[8] = system: Abutilon theophrasti medicus; assay: as above; conditions: 1000 g active ingredient per hectare, 21st day after treatment, criteria of Table 138
How it was run: as §3

SMILES | herbicidal effect (index) on Amaranthus viridis L. (Amaranthus viridis L. [1]) | herbicidal effect (index) on Abutilon theophrasti medicus [2] | herbicidal effect (index) on Echinochloa crus-galli (L.) P. Beauv. var. crus-galli [3] | Herbicidal effects index, Scirpus juncoides Roxb. var. ohwianus. T. Koyama [4] | Herbicidal effects index, Echinochloa oryzicola Vasing [5] | Herbicidal effects index, Monochoria vaginalis (Burm. f.) Presl var. plantaginea (Roxb.) Solms-Laub. [6] | herbicidal effect (index) on Amaranthus viridis L. (Amaranthus viridis L. [7]) | herbicidal effect (index) on Abutilon theophrasti medicus [8]
CCSCn1c(=O)c(C(=O)C2=C(O)CCCC2=O)nc2ccccc21 [Compound I-72] | 5 | 5 | 5 | 5 | 5 | 5 | 5 | 5
CCS(=O)(=O)Cn1c(=O)c(C(=O)C2=C(O)CCCC2=O)nc2ccccc21 [Compound I-82] | 5 | 5 | 4 | 5 | 5 | 5 | 5 | 5
COCCn1c(=O)c(C(=O)C2=C(O)CCCC2=O)nc2ccccc21 [Compound I-88] | 5 | 5 | 5 | 5 | 5 | 5 | 5 | 5
COCC(C)n1c(=O)c(C(=O)C2=C(O)CCCC2=O)nc2ccccc21 (stereo not shown) [Compound I-90] | 5 | 5 | 5 | 5 | 5 | 5 | 5 | 5
COCCCn1c(=O)c(C(=O)C2=C(O)CCCC2=O)nc2ccccc21 [Compound I-93] | 5 | 5 | 5 | 5 | 5 | 5 | 5 | 4
CC(=O)Cn1c(=O)c(C(=O)C2=C(O)CCCC2=O)nc2ccccc21 [Compound I-94] | 5 | 5 | 5 | 5 | 5 | 5 | 4 | 5
CC(C)(C)OC(=O)Cn1c(=O)c(C(=O)C2=C(O)CCCC2=O)nc2ccccc21 [Compound I-99] | 5 | 5 | 5 | 5 | 5 | 5 | 5 | 5
N#CCn1c(=O)c(C(=O)C2=C(O)CCCC2=O)nc2ccccc21 [Compound I-102] | 5 | 5 | 5 | 5 | 5 | 4 | 5 | 5
N#CCCn1c(=O)c(C(=O)C2=C(O)CCCC2=O)nc2ccccc21 [Compound I-103] | 5 | 5 | 5 | 5 | 5 | 5 | 5 | 5
O=C1CCCC(O)=C1C(=O)c1nc2ccccc2n(Cc2ccccc2)c1=O [Compound I-107] | 5 | 5 | 4 | 5 | 4 | 5 | 5 | 5
O=C1CCCC(O)=C1C(=O)c1nc2ccccc2n(CC(F)(F)F)c1=O [I-40] | 5 | 5 | 5 | 5 | 5 | 5 | 5 | 5
COCn1c(=O)c(C(=O)C2=C(O)CCCC2=O)nc2ccccc21 [I-49] | 5 | 5 | 4 | 5 | 5 | 5 | 5 | 5
CCOCn1c(=O)c(C(=O)C2=C(O)CCCC2=O)nc2ccccc21 [I-50] | 5 | 5 | 4 | 5 | 5 | 5 | 5 | 5
COCCOCn1c(=O)c(C(=O)C2=C(O)CCCC2=O)nc2ccccc21 [I-58] | 5 | 5 | 5 | 5 | 5 | 5 | 5 | 5
